Laboratory results published in patent US20060101536A1, “Eucalyptus urophylla transformation and regeneration” (ArborGen, LLC, priority 2004, published 2006).

What was measured:
E. urophylla = assay: Combining auxin with Agrobacterium inducer in pre-culture, infection by GUS staining; type: cell-based, Eucalyptus urophylla; conditions: Table 8
Protocol: Induced Agrobacterium culture was prepared as described in Example 3 and the culture was dripped onto each explant by pipette. Sufficient Agrobacterium culture was dripped to ensure that all the cut edges were covered with bacterial solution. Alternatively, the explants may be transformed by vacuum infiltration, floral dip, and other methods of Agrobacterium-mediated transformation. Following transformation, explants covered with Agrobacterium culture were placed in the dark for four days of co-cultivation. Alternatively, the explants may be co-cultivated with Agrobacterium under light conditions. Additionally, the explants may be co-cultivated with Agrobacterium under light or dark conditions for 2-10 days, preferably 4 days. Following co-cultivation, the explants were transferred to Euc Regeneration medium (Table 3) with 400 mg/l timentin. There is no need to wash explants. Explants were cultured on this medium for four days before transfer to a selection medium. In the present example, the selection medium is the Euc Regeneration medium supplemented with both timentin and an herbicide selection agent.
(§1) GUS staining was performed to monitor the frequency of Agrobacterium infection and to ensure that the selected shoots are not escapes or chimeras. For transformation experiments with pWVR133, the leaf and stem tissues from the regenerated shoots were stained for GUS expression immediately upon shoot development. For transformation experiments with pWVZ20, leaf and stem tissues from the regenerated shoots were stained for GUS expression when shoots are further developed and free from residual Agrobacterium. To determine GUS activity, the explants were incubated in a substrate comprising 100 mM phosphate buffer (pH 7.0), 0.05% dimethyl suphoxide, 0.05% Triton X-100, 10 mM EDTA, 0.5 mM potassium ferrocyanide, and 1.5 mg/ml 5-bromo-4-chloro-3-indolyl-β-D-glucuronide (X-gluc). The explants were subjected to 10 minutes of vacuum before an overnight incubation at 37° C. Following overnight incubation, GUS foci were counted.
In the following examples, explants from E. urophylla clones were cultured on auxin-rich pre-culture medium with or without 250 μM AS before infection. Explants were pre-cultured with Euc Regeneration medium as the control. Following pre-culture, the explants were inoculated with Agrobacterium as described in Example 5.

[1] = test system: Elite Eucalyptus urophylla clone; assay: Shoot regeneration after pre-culture in control experiments; type: cell-based; conditions: medium with 1.0 mg/l 2,4-D (0.5 mg/l zeatin)
Description: In addition, the regeneration is not affected by the pre-culture in control experiments.

[2] = test system: Elite Eucalyptus urophylla clone; assay: Auxin pre-treatment, Agrobacterium infection rate by GUS staining; type: cell-based
Protocol: GUS staining was performed to monitor the frequency of Agrobacterium infection and to ensure that the selected shoots are not escapes or chimeras. […] To determine GUS activity, the explants were incubated in a substrate comprising 100 mM phosphate buffer (pH 7.0), 0.05% dimethyl suphoxide, 0.05% Triton X-100, 10 mM EDTA, 0.5 mM potassium ferrocyanide, and 1.5 mg/ml 5-bromo-4-chloro-3-indolyl-β-D-glucuronide (X-gluc). The explants were subjected to 10 minutes of vacuum before an overnight incubation at 37° C. Following overnight incubation, GUS foci were counted.
Explants from E. urophylla and E. saligna were prepared as described in Example 1 and Agrobacterium strain GV2260 containing pWVR133 was prepared as described in Example 3. Harvested explants were incubated in the dark for 4 days either on Eucalyptus regeneration medium or a medium with various auxin-rich growth regulators. Agrobacterium culture was dripped on explants and co-cultured with the explants on the same medium for 3 days in dark. Then, explants were removed from the Agrobacterium puddle and transferred to Euc Regeneration medium supplemented with 400 mg/l timentin for 4 days. Following transfer to regeneration medium, the explants were stained for GUS expression.

[3] = test system: wounded cells along the cut edges; assay: Agrobacterium inducer alone in pre-culture medium, infection by GUS staining; type: cell-based
[4] = test system: E. urophylla leaf explants; assay: Geneticin selection of NPTII transformants, GUS staining of resistant calli; type: cell-based, Eucalyptus urophylla; conditions: about 10 weeks selection
Protocol: as §1
E. urophylla leaf explants were infected with Agrobacterium strain GV2260 harboring pWVC33, which contains GUS gene (driven by an constitutive promoter) and NPTII gene (driven by a different constitutive promoter). Before transforming, the explants were pre-cultured for 4 days on a medium having auxin enrichment (IAA at 2 mg/l instead of 0.1 mg/l NAA in standard regeneration medium) and acetosyringone (250 μM). As described in Example 6, the explants were infected with Agrobacterium, co-cultivated on the same medium for 3 days, and then transferred to a regeneration medium supplemented with 400 mg/l timentin for 4 days. Then, the explants were transferred to a selection medium containing geneticin instead of an herbicide selection agent.
The transformants were placed on geneticin selection medium containing geneticin (either 20 or 30 mg/l). Instead of the 3- or 4-week transfer cycles used with an herbicide selection medium, the explants were transferred bi-weekly to fresh geneticin medium. […]

[5] = 0.25 mg/l 2,4-D + 5.0 mg/l zeatin, with or without 250 μM AS
[6] = Table 6, 0.25 mg/l 2,4-D + 0.5 mg/l zeatin
[7] = Table 6, 1.0 mg/l 2,4-D + 0.5 mg/l zeatin
[8] = Table 7, 0.5 mg/l in EucReg Medium + 5 mg/l zeatin
[9] = Table 7, 0.5 mg/l in EucReg Medium + 5 mg/l zeatin, 25 explants
[10] = Table 7, 1.0 mg/l in EucReg Medium + 5 mg/l zeatin
[11] = Table 7, 1.0 mg/l in EucReg Medium + 5 mg/l zeatin, 25 explants
[12] = 2 mg/l IAA + 5.0 mg/l zeatin, with or without 250 μM AS
[13] = Table 7, 2.0 mg/l in EucReg Medium + 5 mg/l zeatin
[14] = Table 7, 2.0 mg/l in EucReg Medium + 5 mg/l zeatin, 25 explants
[15] = Table 7, 3.0 mg/l in EucReg Medium + 5 mg/l zeatin
[16] = 0.1 mg/l NAA + 5.0 mg/l zeatin (Control Regeneration Medium)
[17] = Table 6, 0.1 mg/l NAA + 5.0 mg/l zeatin (Control Regeneration Medium)
[18] = Table 7, 0.1 mg/l in EucReg Medium + 5 mg/l zeatin
[19] = Table 7, 0.1 mg/l in EucReg Medium + 5 mg/l zeatin, 25 explants

Row | SMILES | % GUS+ [2, 8] [%] | Avg. No. Foci/Responding Explant [2, 8] | No. GUS Foci [2, 8] | No. GUS+ [2, 9] | % GUS+ [2, 10] [%] | Avg. No. Foci/Responding Explant [2, 10] | No. GUS Foci [2, 10] | No. GUS+ [2, 11] | % GUS+ [2, 13] [%] | Avg. No. Foci/Responding Explant [2, 13] | No. GUS Foci [2, 13] | No. GUS+ [2, 14] | % GUS+ [2, 18] [%] | Avg. No. Foci/Responding Explant [2, 18] | No. GUS Foci [2, 18] | No. GUS+ [2, 19] | further results
1 | O=C(O)COc1ccc(Cl)cc1Cl [2,4-D, 2,4-Dichlorophenoxy acetic acid] | 80 | 4.9 | 97 | 20 | 48 | 5.3 | 64 | 12 |  |  |  |  |  |  |  |  | % GUS+ (E. urophylla; [5]): 72%; Avg. No. Foci/Responding Explant (E. urophylla; [5]): 10.8; No. GUS Foci (E. urophylla; [5]): 388; No. GUS+ (E. urophylla; 0.25 mg/l 2,4-D + 5.0 mg/l zeatin, with or without 250 μM AS, 50 explants): 36; shoot regeneration [1]: delay of shoot regeneration; % GUS+ [2, 6]: 17%; Avg. No. Foci/Responding Explant [2, 6]: 1.5; No. GUS Foci [2, 6]: 7; No. GUS+ ([2]; Table 6, 0.25 mg/l 2,4-D + 0.5 mg/l zeatin, 24 explants): 4; % GUS+ [2, 7]: 60%; Avg. No. Foci/Responding Explant [2, 7]: 10.3; No. GUS Foci [2, 7]: 155; No. GUS+ ([2]; Table 6, 1.0 mg/l 2,4-D + 0.5 mg/l zeatin, 25 explants): 15
2 | COc1cc(C(C)=O)cc(OC)c1O [AS, acetosyringone] |  |  |  |  |  |  |  |  |  |  |  |  |  |  |  |  | infection ([3]; AS alone in the pre-culture medium): stimulates infection; infection of the wounded cells along the cut edges ([3]; GUS staining): increases the infection of the wounded cells along the cut edges
3 | CN[C@@H]1[C@@H](O)[C@@H](O[C@@H]2[C@@H](O)[C@H](O[C@H]3O[C@H]([C@@H](C)O)[C@@H](O)[C@H](O)[C@H]3N)[C@@H](N)C[C@H]2N)OC[C@]1(C)O [Geneticin] |  |  |  |  |  |  |  |  |  |  |  |  |  |  |  |  | No. GUS+ Calli ([4]; Geneticin 20 mg/l, Regular shaded light, 5 calli stained): 0; No. GUS+ Calli ([4]; Geneticin 30 mg/l, Dark, 6 calli stained): 4; No. GUS+ Calli ([4]; Geneticin 30 mg/l, Regular shaded light, 17 calli stained): 13
4 | O=C(O)Cc1c[nH]c2ccccc12 [IAA, indole-3-acetic acid] |  |  |  |  | 64 | 7.3 | 116 | 16 | 64 | 10.4 | 167 | 16 |  |  |  |  | % GUS+ (E. urophylla; [12]): 73%; Avg. No. Foci/Responding Explant (E. urophylla; [12]): 8.0; No. GUS Foci (E. urophylla; [12]): 289; No. GUS+ (E. urophylla; 2 mg/l IAA + 5.0 mg/l zeatin, with or without 250 μM AS, 49 explants): 36; % GUS+ [2, 15]: 96%; Avg. No. Foci/Responding Explant [2, 15]: 12.3; No. GUS Foci [2, 15]: 565; No. GUS+ ([2]; Table 7, 3.0 mg/l in EucReg Medium + 5 mg/l zeatin, 48 explants): 46
5 | O=C(O)Cc1cccc2ccccc12 [NAA, naphthaleneacetic acid] |  |  |  |  | 52 | 2.7 | 35 | 13 | 36 | 3.3 | 30 | 9 | 16 | 1.3 | 5 | 4 | % GUS+ (E. urophylla; [16]): 22%; Avg. No. Foci/Responding Explant (E. urophylla; [16]): 3.4; No. GUS Foci (E. urophylla; [16]): 37; No. GUS+ (E. urophylla; 0.1 mg/l NAA + 5.0 mg/l zeatin (Control Regeneration Medium), 50 explants): 11; % GUS+ [2, 17]: 12%; Avg. No. Foci/Responding Explant [2, 17]: 2.3; No. GUS Foci [2, 17]: 6; No. GUS+ ([2]; Table 6, 0.1 mg/l NAA + 5.0 mg/l zeatin (Control Regeneration Medium), 25 explants): 3
6 | O=C(Nc1ccccc1)Nc1cnns1 [TDZ, thiadiazuron] | 4 | 3.0 | 3 | 1 | 0 | 0.0 | 0 | 0 |  |  |  |  | 12 | 8.3 | 25 | 3 | 
